# Results reported in PMC3169562, “The Hedgehog Receptor Patched Is Involved in Cholesterol Transport” (PLoS ONE, 2011).
# How the values were obtained:
# human Patched (hPtc) [1] = molecular target: T1, human Patched (hPtc) (Homo sapiens, UniProt Q13635); test: fluorescent sterol efflux from yeast over-expressing hPtc versus Myodulin or hSmo controls; type: cell-based; design: gene PTCH1; hPtc-MAP over-expressed in S. cerevisiae
# T1 sequence (Q13635 1-1447): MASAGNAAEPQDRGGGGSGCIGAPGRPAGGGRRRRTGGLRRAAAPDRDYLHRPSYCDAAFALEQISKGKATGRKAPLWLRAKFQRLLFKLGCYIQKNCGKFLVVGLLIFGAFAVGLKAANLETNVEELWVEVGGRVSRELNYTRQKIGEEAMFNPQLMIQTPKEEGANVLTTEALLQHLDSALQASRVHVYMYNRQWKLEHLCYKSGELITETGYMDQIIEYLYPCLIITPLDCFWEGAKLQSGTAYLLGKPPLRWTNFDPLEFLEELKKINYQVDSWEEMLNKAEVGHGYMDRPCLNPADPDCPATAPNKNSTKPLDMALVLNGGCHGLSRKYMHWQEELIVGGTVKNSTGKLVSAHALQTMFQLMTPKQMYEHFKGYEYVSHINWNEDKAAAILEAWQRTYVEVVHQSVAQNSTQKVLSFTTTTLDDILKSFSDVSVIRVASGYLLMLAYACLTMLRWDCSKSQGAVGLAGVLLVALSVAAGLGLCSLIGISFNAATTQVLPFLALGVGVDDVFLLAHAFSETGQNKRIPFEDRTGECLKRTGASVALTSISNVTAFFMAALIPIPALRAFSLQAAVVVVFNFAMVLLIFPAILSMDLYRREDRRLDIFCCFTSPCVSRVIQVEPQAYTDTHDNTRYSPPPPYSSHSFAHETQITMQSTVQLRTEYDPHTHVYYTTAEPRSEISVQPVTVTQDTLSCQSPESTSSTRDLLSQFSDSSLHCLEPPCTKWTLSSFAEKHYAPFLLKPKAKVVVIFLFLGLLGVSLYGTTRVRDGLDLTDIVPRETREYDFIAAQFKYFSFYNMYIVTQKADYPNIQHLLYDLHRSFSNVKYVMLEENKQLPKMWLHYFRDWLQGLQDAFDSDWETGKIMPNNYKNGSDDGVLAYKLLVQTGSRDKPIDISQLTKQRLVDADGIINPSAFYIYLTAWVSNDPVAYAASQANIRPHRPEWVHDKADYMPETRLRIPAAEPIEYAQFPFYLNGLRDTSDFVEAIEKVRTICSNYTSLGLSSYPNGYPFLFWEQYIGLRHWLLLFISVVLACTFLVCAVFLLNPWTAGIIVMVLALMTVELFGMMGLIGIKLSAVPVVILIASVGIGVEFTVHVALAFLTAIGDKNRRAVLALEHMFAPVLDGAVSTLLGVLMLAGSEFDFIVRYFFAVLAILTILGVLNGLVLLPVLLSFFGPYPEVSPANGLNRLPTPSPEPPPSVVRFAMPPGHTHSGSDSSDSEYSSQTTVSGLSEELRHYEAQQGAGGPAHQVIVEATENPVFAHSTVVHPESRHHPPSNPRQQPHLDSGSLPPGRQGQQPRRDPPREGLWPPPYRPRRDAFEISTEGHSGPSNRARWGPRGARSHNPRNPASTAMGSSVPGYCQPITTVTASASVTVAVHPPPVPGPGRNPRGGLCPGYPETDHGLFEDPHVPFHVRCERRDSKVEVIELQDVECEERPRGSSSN
# human Patched (hPtc) [2] = molecular target: T1, human Patched (hPtc); test: SPR (Biacore): purified hPtc injected over thiocholesterol covalently coupled to a CM5 chip; Myodulin as negative control; type: binding; design: gene PTCH1
% increase of efflux (human Patched (hPtc) [1]),Structure (SMILES),SPR (Biacore): purified hPtc injected over thiocholesterol covalently coupled to (human Patched (hPtc) [2])
~ 88 % increase of efflux,CC1=CC(C)=[N+]2C1=C(CC[C@@H](C)[C@H]1CC[C@H]3[C@@H]4CC=C5C[C@@H](O)CC[C@]5(C)[C@H]4CC[C@]13C)c1c(C)cc(C)n1[B-]2(F)F [BODIPY-cholesterol],–
–,CC(C)CCC[C@@H](C)[C@H]1CC[C@H]2[C@@H]3CC=C4C[C@@H](O)CC[C@]4(C)[C@H]3CC[C@]12C [cholesterol],showed a clear binding of hPtc to cholesterol coupled on the fc in comparison with Myo
